Active and inactive are the calls of the source.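 How the source made its calls: active means EC50 no more than a set limit of log units above the highest dose; inactive means the rest.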

As a reminder, the EC50 is the concentration giving half of the maximal effect.

This experiment deals with S. pyogenes SKKanGAS, kanamycin survival, BacTiterGlo, 6 h. The experiment is described as follows: S. pyogenes SKKanGAS kanamycin growth inhibitors – SKKanGAS strain, luminescence, dose confirmation, streptokinase promoter inhibitor project, dose response (AID 1902).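 Further: lower survival reflects blocked streptokinase promoter driving kanamycin resistance gene.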
For the compound `Oc1c(C(c2ccc(Cl)cc2)N2CCCC2)cc(Cl)c2cccnc12` (stereo unspecified), the EC50 was 1.53 µM. Under `CSc1nc2cc(Oc3cccc(Cl)c3Cl)c(Cl)cc2[nH]1` stands 2.93 µM. The figure for `O=C(NC(NC(=S)Nc1ccc(Cl)c(Cl)c1)C(Cl)(Cl)Cl)c1ccco1` (stereo unspecified) is 3.41 µM; for `Cc1cc(C)c2ccc(NN)nc2c1O` it is 6.08 µM; for `Oc1ccc(/C=N/Nc2ccc3ccccc3c2)c(O)c1` it is 7.53 µM. Under `COc1ccc(-c2nc(NC(=O)C3CC(=O)N(c4ccc5c(c4)OCCO5)C3)sc2C)cc1` (stereo unspecified) stands 12 µM; under `CCOC(=O)c1cnn(-c2nc(-c3ccccc3F)cs2)c1C(F)(F)F`, 10.9 µM. Consider `CO[C@H]1C=CO[C@@]2(C)Oc3c(C)c(O)c4c(O)c(c5c(c4c3C2=O)NC2(CCN(CC(C)C)CC2)N=5)=NC(=O)C(C)=CC=C[C@H](C)[C@H](O)[C@@H](C)[C@@H](O)[C@@H](C)[C@H](OC(C)=O)[C@@H]1C`, for which the EC50 is < 0.06 µM. `CNC(=O)c1c(NC(=O)c2ccc(N3C(=O)CCC3=O)cc2)sc2c1CCC(C)C2` (stereo unspecified): the EC50 was 15.7 µM. Consider `COc1ccc(/C=N/NC(=O)c2cc(C(C)(C)C)[nH]n2)cc1COc1ccc(F)cc1F`, for which the EC50 was 7.62 µM. Consider `CCCC(=O)NC(c1ccc2c(c1)OCO2)c1cc(Cl)c2cccnc2c1O` (stereo unspecified), for which the half-maximal effective concentration (EC50) was 1.17 µM.

For the compound `COc1cc([N+](=O)[O-])cc(/C=N/NC(=O)c2cc(-c3ccccc3)nc3ccccc23)c1O`, the EC50 is 3.2 µM. With `N#C/C(=N\Nc1ccc(Cl)cc1)C(N)=S`, the EC50 was > 15 µM (inactive). Turning to `CC(=O)c1cccc(OC(=O)c2ccc3c(=O)n4c(nc3c2)CCC4)c1`, the EC50 was 13.7 µM.

As for `COc1c(CC=C(C)C)cc(C2CC(=O)c3c(O)cc(O)cc3O2)c(CC=C(C)C)c1O` (stereo unspecified), the EC50 is 1.87 µM. With `CC(C)c1nc(N2CCCC2)c(C#N)c2c1CCCC2`, the EC50 was 4.1 µM. Under `O=C(c1ccccc1Cl)N1CCN(S(=O)(=O)c2cccs2)CC1` stands > 15 µM (inactive); under `O=C(/C=C/c1ccc([N+](=O)[O-])o1)NNC(=O)c1ccc(F)cc1`, 1.8 µM. The figure for `CCCCN(C)S(=O)(=O)c1ccc(C(=O)Nc2nnc(-c3cccs3)o2)cc1` is 0.941 µM; for `C/C(=N\Nc1nc(N2CCCCCC2)nc(N2CCCCCC2)n1)c1ccccc1` it is 3.69 µM; for `COc1cc(/C=N/Nc2nc(Nc3ccc(C)cc3)nc(-n3nc(C)cc3C)n2)cc(OC)c1OC` it is 0.171 µM. For the compound `O=c1[nH]c(-c2ccccn2)nc2sc(-c3ccccc3)cc12`, the EC50 is 0.261 µM.

For the compound `CCOc1ccc(C(=O)NC(=S)Nc2ccc(NC(=O)CC)cc2)cc1[N+](=O)[O-]`, the EC50 is 4.35 µM. Under `O=C(/C=C/c1ccccc1)c1cc(Br)ccc(=O)c1O` stands 1.33 µM. `C#CCOCCOCCOCCNc1nc(N2CCN(C(=O)CCCCCCCCCCNC(=O)[C@H](CCCCN)n3cc(C[C@@H](C)CC)nn3)CC2)nc(N2CCN(C(=O)CCCCCCCCCCNC(=O)[C@H](CCCCN)n3cc(C[C@@H](C)CC)nn3)CC2)n1`: the EC50 is 5.16 µM. On to `COc1ccc(/C=C/C(=O)NC(=S)NNC(=O)c2ccco2)cc1`, for which the EC50 was 1.67 µM. Take `Cc1cccc(OCC(=O)Nc2ccc(C(=O)Nc3ccccc3C(=O)O)cc2)c1C`: the EC50 was 2.41 µM. Regarding `Cc1cc(N/N=C/c2cccc(Br)c2)nc2ccccc12`, the half-maximal effective concentration (EC50) is 5.25 µM.

As for `COc1ccc(Br)cc1[C@H]1[C@@H]2C=CCC[C@@]2(C)C(=O)N1Cc1ccccc1`, the concentration giving a half-maximal response (EC50) was 4.92 µM. Turning to `CC(C)C(NC(=O)C(c1ccccc1)c1ccccc1)c1nc2ccccc2[nH]1` (stereo unspecified), the EC50 is 2.96 µM. As for `COc1cccc(N/N=C/c2cccc(Br)c2O)c1`, the EC50 is 15.6 µM. Take `Cc1cc(C)nc(-n2nc(C)c(Sc3ccc(F)cc3)c2N)n1`: the EC50 is > 15 µM (inactive).

As to `O=[N+]([O-])c1cc(Br)c(O)c(/C=N/Nc2nc3ccccc3s2)c1`, the EC50 was 1.23 µM. `COc1ccccc1CN1CN(S(=O)(=O)c2ccccc2)c2nc3ccccc3nc21`: the EC50 was 5.13 µM. As to `Cc1nn2c(NCc3ccccn3)cc(C(C)(C)C)nc2c1-c1ccccc1`, the EC50 was 1.54 µM. For `O=[N+]([O-])c1ccc(O)c(-c2nc(-c3ccccc3)c(-c3cccs3)[nH]2)c1`, the EC50 is 0.979 µM. As for `COc1cccc(/C=C/C(=O)OCC(=O)Nc2nnc(-c3ccccc3)o2)c1`, the half-maximal effective concentration (EC50) was 4.21 µM.

`CCCCCCCCCc1nc2sc3c(c2c(=O)n1NC(=O)c1ccc([N+](=O)[O-])cc1)CC(C)(C)OC3`: the EC50 was 3.5 µM. The figure for `COc1ccc(NS(=O)(=O)c2ccc3ccccc3c2)c2ncccc12` is 1.2 µM; for `Cc1ccc(NC(=O)CN2C(=O)S/C(=C/c3ccc(-c4cc(C(=O)O)ccc4C)o3)C2=O)cc1C` it is 2.11 µM; for `O=C(N/N=C/c1ccc(-c2ccc(Cl)c(C(=O)O)c2)o1)c1cc2c(ccc3ccccc32)o1` it is 4.05 µM. For `CCN(CC)CCN(C(=O)CCS(=O)(=O)c1ccccc1)c1nc2cc(C)cc(C)c2s1`, the EC50 is > 15 µM (inactive). On to `C/C(CC(=O)Nc1ccc(Cl)c(C(F)(F)F)c1)=N\NC(=O)c1ccccc1O`, for which the EC50 was 3.98 µM. In the case of `C/C(=N\NC(=O)c1ccc(-c2ccccc2)cc1)C1C(=O)c2ccccc2C1=O`, the EC50 is 1.1 µM. Regarding `O=Nc1c(-c2c(O)[nH]c3cc(Br)ccc23)[nH]c2ccccc12`, the EC50 is 2.95 µM. As to `Oc1c(CN2CCCCC2)cc(Br)c2cccnc12`, the EC50 was 1.12 µM.

For the compound `Cc1[nH]c2ccccc2c1/C=N/Nc1nc2ccccc2[nH]1`, the EC50 is 4.87 µM. For `O=C(c1cccs1)N1N=C(c2ccccc2)CC1c1ccccc1` (stereo unspecified), the EC50 is 6.41 µM. `Oc1c(N=Nc2ccccn2)ccc2ccccc12`: the EC50 was 2.58 µM.

For the compound `Cc1ccc(-n2cc3c(-c4cccc(Br)c4)nnc(C)c3n2)cc1`, the EC50 is 7.09 µM.

Regarding `CC1CC(C)(C)n2c(O)c(N=NC(N)=S)c3cccc1c32` (stereo unspecified), the EC50 was 4.84 µM. `COCCOC(=O)c1c(C)nc(SCC(=O)Nc2ccc(C)cc2)c(C#N)c1-c1ccco1`: the EC50 is 6.68 µM. Turning to `COc1ccc(-c2cc(C3CCN(c4ccc(C(C)=O)cc4[N+](=O)[O-])CC3)[nH]n2)cc1`, the EC50 is 2.76 µM. Turning to `O=C(Nc1ccc(Cl)c(Cl)c1)Nc1ccon1`, the EC50 was 14.5 µM. For the compound `O=C(O)c1ccc(N/N=C/c2ccc(-c3ccc(Cl)cc3Cl)o2)cc1`, the 50% effective concentration (EC50) was 1.94 µM.

Consider `Oc1c(C=Nc2cccc3cccnc23)sc2ccccc12`, for which the 50% effective concentration (EC50) is 3.94 µM. As for `COc1cccc(/C=N/Nc2cc(C)nc(-c3ccccc3O)n2)c1O`, the half-maximal effective concentration (EC50) is 1.96 µM. `Cc1cc(/C=N/n2cnnc2)c(C)n1-c1ccc(OCc2ccc(Cl)cc2)cc1`: the EC50 is 6.19 µM. For the compound `CCOC(=O)c1ccc(-n2c(O)c(/C=N/NC(=O)C3COc4ccccc4O3)c3ccccc3c2=O)cc1` (stereo unspecified), the EC50 was 1.55 µM.

Regarding `CC(=O)Nc1ccc(NC(=O)CSc2nnc(NC(=O)c3ccc(Br)o3)s2)cc1`, the EC50 was 2.68 µM.

Turning to `N#Cc1c(Nc2cccc(F)c2)sc2c(O)cc(=O)[nH]c12`, the EC50 was 0.861 µM.

Regarding `C=CCSc1nsc(NC(=O)Nc2ccc(F)cc2)n1`, the 50% effective concentration (EC50) was 3.7 µM. Turning to `O=c1[nH]c2ccc(Cl)cc2c(-c2ccccc2)c1SC(=S)N1CCOCC1`, the EC50 was 0.697 µM. Under `CC1CCCCC1NC(=O)CCn1ccc2cc(S(=O)(=O)N3CCCC3)ccc21` (stereo unspecified) stands > 15 µM (inactive).

On to `c1ccc2c(c1)nc(Nc1ccc(N3CCCCC3)cc1)c1nncn12`, for which the half-maximal effective concentration (EC50) is 6.03 µM. As to `Cc1cc(C(=O)N/N=C/c2cc(Br)cc([N+](=O)[O-])c2O)c2ccccc2n1`, the EC50 was 0.893 µM.

On to `O=C1CC(N(CCc2ccccc2)C(=S)Nc2ccccc2)C(=O)N1c1ccc(Br)cc1` (stereo unspecified), for which the EC50 was 3.07 µM.

For `CCCCCCn1c(=O)c(C(=O)N/N=C/c2cccc(F)c2)c(O)c2ccccc21`, the EC50 is 2.11 µM.

For the compound `CCC(=O)NC(c1ccc(OC)c(OC)c1)c1cc(Cl)c2cccnc2c1O` (stereo unspecified), the EC50 was 5 µM. Consider `Cc1cc(C)c2nc(N3C(=O)C(O)=C(C(=O)c4ccco4)C3c3ccco3)sc2c1` (stereo unspecified), for which the EC50 was 2.12 µM. `CCCCSc1ccc2nc(-c3ccc(C#N)cc3)cn2c1`: the EC50 was 7.72 µM.

For the compound `NS(=O)(=O)c1ccc(N2N=C(c3ccc(Br)cc3)CC2c2ccc(F)cc2)cc1` (stereo unspecified), the EC50 is 2.21 µM. In the case of `CC(C)CN(Cc1cc(=O)oc2cc(-c3ccccc3)c(O)cc12)CC(C)C`, the EC50 was 3.88 µM.

Regarding `O=C1C2=C(NC(=S)NC2c2ccc(Cl)cc2)NC(c2ccc(Cl)cc2)N1c1ccc(Cl)cc1` (stereo unspecified), the EC50 was 1.93 µM. For the compound `Oc1ccccc1C1=NN(c2ccccc2)C(c2ccccc2)C1` (stereo unspecified), the EC50 was 2.76 µM. For `Fc1cccc2sc(Nc3nnc(-c4ccco4)o3)nc12`, the EC50 was 0.307 µM. With `CCCCn1c(O)c(N=NC(=O)c2ccccc2NS(=O)(=O)c2cccs2)c2ccccc21`, the EC50 was 5.06 µM. As to `CCCC(=O)NC(c1ccc(C(C)C)cc1)c1ccc2cccnc2c1O` (stereo unspecified), the EC50 is 5.54 µM.

For the compound `C/C(N)=C(/C#N)C(=O)CSc1nc2scc(-c3ccccc3)c2c(=O)n1C`, the EC50 is 1.62 µM.

For the compound `Cc1ccccc1C(=O)Nc1scc(-c2ccc(Br)cc2)c1C(=O)O`, the EC50 is 1.82 µM.

With `Cc1ccc(C(=O)n2c(N)nc3ccccc32)cc1`, the EC50 was 4.29 µM. In the case of `O=C1c2cccc3c([N+](=O)[O-])ccc(c23)C(=O)N1O`, the EC50 was 1.16 µM.

Consider `Cc1ccc(OP(=O)(Nc2cccc(C)c2)Oc2ccc(C)cc2)cc1`, for which the 50% effective concentration (EC50) is 9.09 µM. Under `CC(=O)OCC1=C(C(=O)O)N2C(=O)C(NC(=O)CCn3nc(C)c(Cl)c3C)C2SC1` (stereo unspecified) stands 1.02 µM; under `Cc1cc(C)c2nc(NNC(=O)c3ccc(S(=O)(=O)N4CCc5ccccc5C4)cc3)sc2c1`, 0.538 µM.

Take `N#Cc1c(-c2ccccc2)nc(SCc2ccc(Cl)cc2)[nH]c1=O`: the EC50 was 6.47 µM. Regarding `N#Cc1ccc(NC(=O)Nc2ccc(Cl)cc2)cc1`, the half-maximal effective concentration (EC50) is 6.03 µM. Turning to `C[C@@H](O)[C@H]1C(=O)N2C(C(=O)O)=C(S[C@@H]3CN[C@H](C(=O)N(C)C)C3)[C@H](C)[C@H]12`, the EC50 was 0.127 µM. On to `N#CC1=C(c2ccccc2)/C(=C/c2ccccc2)OC1=O`, for which the EC50 is 9.97 µM. For the compound `CC(C)c1ccc(N2C(=O)/C(=C/N(C)C)SC2=S)cc1`, the EC50 is 4.7 µM. As to `CCCCn1c(NS(=O)(=O)c2ccccc2)c(S(=O)(=O)c2ccc(C)cc2)c2nc3ccccc3nc21`, the EC50 is 3.43 µM.
